Experimental data reported in patent US20260109712A1, “RIFAMYCINS FOR NONTUBERCULOUS MYCOBACTERIA” (priority 2022, published 2026).
Values after ≈ are worked out from the molar mass of the structure shown. Read-outs that look alike come from different tables or passages of the source.

Tests used:
Δarr M. abscessus = assay: MIC assay, isogenic arr-deleted strain; type: cell-based, Mycobacterium abscessus; settings: Table 10
Procedure, shortened: (§1)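 Two-fold, ten-point dilutions in 7H9 with 2% DMSO; mid-log culture diluted to OD600=0.1 (1×10^7 CFU/mL). Incubated 3 days at 37 °C, shaking 110 RPM; growth = Day 3 minus Day 0 OD600, expressed as percentage of drug-free growth and plotted against concentration. Two biological replicates.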

Mycobacterium abscessus = assay: MIC against Mycobacterium abscessus (strain not given); type: cell-based
[1] = Plasma protein binding assay (rapid equilibrium dialysis); type: in vitro ADME; settings: for fraction unbound at 4 h, 10000 ng/mL / plasma unbound fraction: plasma
Procedure, shortened: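 Plasma was spiked to 10,000 ng/mL compound and dialysed against PBS by rapid equilibrium dialysis for 4 h at 37° C with shaking at 300 RPM. Plasma and buffer aliquots were matrix-matched 1:1 […] and quantified by LC-MS/MS.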

CYP3A4 = settings: human, 10 μM
M. abscessus ATCC 19977 = assay: MIC assay in 96-well plate format, wild-type strain; type: cell-based, Mycobacterium abscessus; settings: for MICWT: Table 10; for MIC: Mycobacteroides abscessus, ATCC19977
Procedure, shortened: as §1

[2] = Mouse pharmacokinetics studies; type: in vivo, CD-1 mice; settings: mouse, in vivo
Procedure: Blood was captured in CB300 blood collection tubes containing K2EDTA and stored on ice. Plasma was recovered after centrifugation and stored at −80° C. until analyzed by high pressure liquid chromatography coupled to tandem mass spectrometry (LC-MS/MS). Pharmacokinetic parameters were calculated using non-compartmental pharmacokinetic analysis. […] Extracts were vortexed for 5 minutes and centrifuged at 4000 RPM for 5 minutes. 75 μL of supernatant was transferred for LC-MS/MS analysis and diluted with 75 μL of Milli-Q deionized water. Rifabutin was purchased from Carbosynth. C25-desacetyl rifabutin and rifabutin-d7 were purchased from Toronto Research Chemical. Verapamil was purchased from Sigma-Aldrich. […] Multiple-reaction monitoring of parent/daughter transitions in electrospray positive-ionization mode was used to quantify all analytes. […] Data processing was performed using Analyst software (version 1.6.2; Applied Biosystems Sciex).

[3] = Mycobacteroides abscessus, 72 h, Table 22, read-out: MICMab
[4] = Table 15, heterocyclic aromatic carbamates, read-out: WT Mab MIC
[5] = Mycobacterium abscessus ATCC 19977, Table 11, read-out: MIC

SMILES | MICΔorr (Δarr M. abscessus) [µM] | MIC (Mycobacterium abscessus; [3]) [nM] | CYP3A4 gene fold-induction at 10 μM (CYP3A4) | MICWT (M. abscessus ATCC 19977) [µM] | MIC (Mycobacterium abscessus; Table 13, read-out: Mab MIC) [nM] | ƒu [1] [%] | plasma unbound fraction [1] [%] | also measured
CO[C@H]1/C=C/O[C@@]2(C)Oc3c(C)c(O)c4c(c3C2=O)C2=NC3(CCN(CC(C)C)CC3)NC2=C(NC(=O)/C(C)=C/C=C/[C@H](C)[C@H](O)[C@@H](C)[C@@H](O)[C@@H](C)[C@H](OC(=O)c2ccccc2)[C@@H]1C)C4=O [UMN7] | 0.059 | 53 (≈ 0.0482 µg/mL) | 8.6 | 0.053 | – | – | – | fraction unbound at 4 h, 10000 ng/mL [1]: 0.0003
COc1cccc(C(=O)O[C@H]2[C@H](C)[C@H](O)[C@H](C)[C@@H](O)[C@@H](C)/C=C/C=C(\C)C(=O)NC3=C4NC5(CCN(CC(C)C)CC5)N=C4c4c(c(O)c(C)c5c4C(=O)[C@@](C)(O/C=C/[C@H](OC)[C@H]2C)O5)C3=O)c1 [UMN26] | 0.13 | – | – | 0.13 | 130 (≈ 0.122 µg/mL) | 0.02 | 0.02 | –
CO[C@H]1/C=C/O[C@@]2(C)Oc3c(C)c(O)c4c(c3C2=O)C2=NC3(CCN(CC(C)C)CC3)NC2=C(NC(=O)/C(C)=C/C=C/[C@H](C)[C@H](O)[C@@H](C)[C@@H](O)[C@@H](C)[C@H](OC(=O)c2cccc(Cl)c2)[C@@H]1C)C4=O [UMN27] | 0.13 | – | – | 0.14 | 140 (≈ 0.132 µg/mL) | 0 | 0 | –
CO[C@H]1/C=C/O[C@@]2(C)Oc3c(C)c(O)c4c(c3C2=O)C2=NC3(CCN(CC(C)C)CC3)NC2=C(NC(=O)/C(C)=C/C=C/[C@H](C)[C@H](O)[C@@H](C)[C@@H](O)[C@@H](C)[C@H](OC(=O)c2ccc(-c3ccccc3)cc2)[C@@H]1C)C4=O [UMN28] | 1.00 | – | – | 0.85 | 850 (≈ 0.837 µg/mL) | 0 | 0 | –
CO[C@H]1/C=C/O[C@@]2(C)Oc3c(C)c(O)c4c(c3C2=O)C2=NC3(CCN(CC(C)C)CC3)NC2=C(NC(=O)/C(C)=C/C=C/[C@H](C)[C@H](O)[C@@H](C)[C@@H](O)[C@@H](C)[C@H](OC(=O)NC2CC(C)(C)NC(C)(C)C2)[C@@H]1C)C4=O [UMN32] | 0.09 | 40 (≈ 0.0395 µg/mL) | 0.6 | 0.04 | – | – | – | ƒu ([1]; 4 h, 10000 ng/mL): 6.7%; fraction unbound at 4 h, 10000 ng/mL [1]: 0.067; MIC (M. abscessus ATCC 19977; Table 14, carbamate analogs, read-out: WT Mab MIC): 0.04 µM (≈ 0.0395 µg/mL)
CO[C@H]1/C=C/O[C@@]2(C)Oc3c(C)c(O)c4c(c3C2=O)C2=NC3(CCN(CC(C)C)CC3)NC2=C(NC(=O)/C(C)=C/C=C/[C@H](C)[C@H](O)[C@@H](C)[C@@H](O)[C@@H](C)[C@H](OC(=O)c2ccncc2)[C@@H]1C)C4=O [UMN47] | 0.017 | – | – | 0.017 | 17 (≈ 0.0155 µg/mL) | 2.0 | 2.00 | –
CO[C@H]1/C=C/O[C@@]2(C)Oc3c(C)c(O)c4c(c3C2=O)C2=NC3(CCN(CC(C)C)CC3)NC2=C(NC(=O)/C(C)=C/C=C/[C@H](C)[C@H](O)[C@@H](C)[C@@H](O)[C@@H](C)[C@H](OC(=O)c2ccccn2)[C@@H]1C)C4=O [UMN48] | 0.026 | – | – | 0.02 | 20 (≈ 0.0182 µg/mL) | 3.0 | 2.95 | –
CO[C@H]1/C=C/O[C@@]2(C)Oc3c(C)c(O)c4c(c3C2=O)C2=NC3(CCN(CC(C)C)CC3)NC2=C(NC(=O)/C(C)=C/C=C/[C@H](C)[C@H](O)[C@@H](C)[C@@H](O)[C@@H](C)[C@H](OC(=O)c2ccnnc2)[C@@H]1C)C4=O [UMN49] | 0.034 | – | – | 0.033 | 33 (≈ 0.0301 µg/mL) | 8.2 | 8.22 | –
CO[C@H]1/C=C/O[C@@]2(C)Oc3c(C)c(O)c4c(c3C2=O)C2=NC3(CCN(CC(C)C)CC3)NC2=C(NC(=O)/C(C)=C/C=C/[C@H](C)[C@H](O)[C@@H](C)[C@@H](O)[C@@H](C)[C@H](OC(=O)c2ccncn2)[C@@H]1C)C4=O [UMN50] | 0.036 | – | – | 0.035 | 35 (≈ 0.0319 µg/mL) | 7.2 | 7.22 | –
CO[C@H]1/C=C/O[C@@]2(C)Oc3c(C)c(O)c4c(c3C2=O)C2=NC3(CCN(CC(C)C)CC3)NC2=C(NC(=O)/C(C)=C/C=C/[C@H](C)[C@H](O)[C@@H](C)[C@@H](O)[C@@H](C)[C@H](OC(=O)c2cnccn2)[C@@H]1C)C4=O [UMN51] | 0.027 | – | – | 0.03 | 30 (≈ 0.0273 µg/mL) | 7.0 | 6.96 | –
CO[C@H]1/C=C/O[C@@]2(C)Oc3c(C)c(O)c4c(c3C2=O)C2=NC3(CCN(CC(C)C)CC3)NC2=C(NC(=O)/C(C)=C/C=C/[C@H](C)[C@H](O)[C@@H](C)[C@@H](O)[C@@H](C)[C@H](OC(=O)C2CCC2)[C@@H]1C)C4=O [UMN80] | 0.026 | – | – | 1.2 | 1200 (≈ 1.06 µg/mL) | 0.3 | 0.29 | –
CO[C@H]1/C=C/O[C@@]2(C)Oc3c(C)c(O)c4c(c3C2=O)C2=NC3(CCN(CC(C)C)CC3)NC2=C(NC(=O)/C(C)=C/C=C/[C@H](C)[C@H](O)[C@@H](C)[C@@H](O)[C@@H](C)[C@H](OC(=O)C2CCCC2)[C@@H]1C)C4=O [UMN81] | 0.03 | – | – | 1.2 | 1200 (≈ 1.08 µg/mL) | 0.05 | 0.05 | –
CO[C@H]1/C=C/O[C@@]2(C)Oc3c(C)c(O)c4c(c3C2=O)C2=NC3(CCN(CC(C)C)CC3)NC2=C(NC(=O)/C(C)=C/C=C/[C@H](C)[C@H](O)[C@@H](C)[C@@H](O)[C@@H](C)[C@H](OC(=O)C2CCCCC2)[C@@H]1C)C4=O [UMN82] | 0.05 | – | – | 0.54 | 1100 (≈ 1.01 µg/mL) | 0.03 | 0.03 | –
CO[C@H]1/C=C/O[C@@]2(C)Oc3c(C)c(O)c4c(c3C2=O)C2=NC3(CCN(CC(C)C)CC3)NC2=C(NC(=O)/C(C)=C/C=C/[C@H](C)[C@H](O)[C@@H](C)[C@@H](O)[C@@H](C)[C@H](OC(=O)c2cscn2)[C@@H]1C)C4=O [UMN94] | – | – | – | – | 36 (≈ 0.033 µg/mL) | 2.9 | – | CL [2]: 5.0 mL/kg/min; F [2]: 77%; Vd [2]: 1.22 L/kg; ƒAUC/MIC [2]: 22.4; AUCp.o. ([2]; po): 25765 ng·h/mL
CO[C@H]1/C=C/O[C@@]2(C)Oc3c(C)c(O)c4c(c3C2=O)C2=NC3(CCN(CC(C)C)CC3)NC2=C(NC(=O)/C(C)=C/C=C/[C@H](C)[C@H](O)[C@@H](C)[C@@H](O)[C@@H](C)[C@H](OC(=O)Nc2ccncn2)[C@@H]1C)C4=O [UMN118] | – | 32 (≈ 0.0296 µg/mL) | 2.0 | – | – | – | – | ƒu ([1]; 4 h, 10000 ng/mL): 5.1%; MIC (M. abscessus ATCC 19977; [4]): 0.032 µM (≈ 0.0296 µg/mL)
CO[C@H]1/C=C/O[C@@]2(C)Oc3c(C)c(O)c4c(c3C2=O)C2=NC3(CCN(CC(C)C)CC3)NC2=C(NC(=O)/C(C)=C/C=C/[C@H](C)[C@H](O)[C@@H](C)[C@@H](O)[C@@H](C)[C@H](OC(=O)Nc2cccnn2)[C@@H]1C)C4=O [UMN121] | – | 38 (≈ 0.0352 µg/mL) | 2.7 | – | – | – | – | MIC (M. abscessus ATCC 19977; [5]): 0.038 µM (≈ 0.0352 µg/mL)
CO[C@H]1/C=C/O[C@@]2(C)Oc3c(C)c(O)c4c(c3C2=O)C2=NC3(CCN(CC(C)C)CC3)NC2=C(NC(=O)/C(C)=C/C=C/[C@H](C)[C@H](O)[C@@H](C)[C@@H](O)[C@@H](C)[C@H](OC(=O)Nc2ccn3nccc3c2)[C@@H]1C)C4=O [UMN123] | – | 51 (≈ 0.0492 µg/mL) | 1.2 | – | – | – | – | –
CO[C@H]1/C=C/O[C@@]2(C)Oc3c(C)c(O)c4c(c3C2=O)C2=NC3(CCN(CC(C)C)CC3)NC2=C(NC(=O)/C(C)=C/C=C/[C@H](C)[C@H](O)[C@@H](C)[C@@H](O)[C@@H](C)[C@H](OC(=O)Nc2cccn3ccnc23)[C@@H]1C)C4=O [UMN125] | – | 30 (≈ 0.0289 µg/mL) | 3.6 | – | – | – | – | –
CO[C@H]1/C=C/O[C@@]2(C)Oc3c(C)c(O)c4c(c3C2=O)C2=NC3(CCN(CC(C)C)CC3)NC2=C(NC(=O)/C(C)=C/C=C/[C@H](C)[C@H](O)[C@@H](C)[C@@H](O)[C@@H](C)[C@H](OC(=O)Nc2c(C)nc3ccccn23)[C@@H]1C)C4=O [UMN131] | – | 49 (≈ 0.0479 µg/mL) | 3.0 | – | – | – | – | MIC (M. abscessus ATCC 19977; [5]): 0.049 µM (≈ 0.0479 µg/mL)
CO[C@H]1/C=C/O[C@@]2(C)Oc3c(C)c(O)c4c(c3C2=O)C2=NC3(CCN(CC(C)C)CC3)NC2=C(NC(=O)/C(C)=C/C=C/[C@H](C)[C@H](O)[C@@H](C)[C@@H](O)[C@@H](C)[C@H](OC(=O)Nc2cscn2)[C@@H]1C)C4=O [UMN132] | – | 26 (≈ 0.0242 µg/mL) | 1.4 | – | – | – | – | ƒu ([1]; 4 h, 10000 ng/mL): 1.7%; MIC (M. abscessus ATCC 19977; [4]): 0.026 µM (≈ 0.0242 µg/mL)
CO[C@H]1/C=C/O[C@@]2(C)Oc3c(C)c(O)c4c(c3C2=O)C2=NC3(CCN(CC(C)C)CC3)NC2=C(NC(=O)/C(C)=C/C=C/[C@H](C)[C@H](O)[C@@H](C)[C@@H](O)[C@@H](C)[C@H](OC(=O)Nc2cncs2)[C@@H]1C)C4=O [UMN133] | – | 46 (≈ 0.0428 µg/mL) | 1.7 | – | – | – | – | ƒu ([1]; 4 h, 10000 ng/mL): 3.0%; MIC (M. abscessus ATCC 19977; [4]): 0.046 µM (≈ 0.0428 µg/mL)
